Reference: US20170196927A1, “COMPOSITION FOR ARTHRITIS, MOBILITY AND DELAY AGEING” (Mars, Incorporated, priority 2014, published 2017)
Like-named read-outs stand apart in the source and are kept apart here.

Tests used:
[1] = tested on: inducible isoform Nitric oxide Synthase (iNoS); experiment: RNA expression of iNoS (RT-PCR) in IL-1β stimulated RAC; type: cell-based, Rabbit; details: for Effect on iNos expression (in words): IL-1β stimulated RAC; for iNoS Expression: relative RNA expression (untreated = 1.0), GAPDH reference, 24 h pre-treatment, IL-1β 10 ng/ml 48 h, green tea extract 50 μM, collagen 0.5 mg/ml, chondroitin 200 μg/ml
Method: (§1) An in vitro study was run to evaluate the efficacy of a composition containing chondroitin, hydrolysed collagen and green tea extract on Rabbit Articular Chondrocytes (RAC). RAC were cultured in DMEM supplemented with 10% Fetal Calf Serum, glutamine and 1% penicillin/streptomycin (Gibco, Life Technologies AG, Switzerland) at 37° C. in an incubator with an atmosphere of 5% CO2.
(§2) RAC were plated in 6 well plates (3×10^5 cells/cm2). The medium was replaced with fresh medium containing each compound chondroitin, hydrolysed collagen and green tea extract or a mixture of all three compounds for 24 hours prior to stimulation with IL-1β (10 ng/ml) (Merck Millipore, USA). RAC were then incubated for 48, hours after which RNA expression of cyclooxgenase-2 (COX-2), inducible isoform Nitric oxide Synthase (iNoS) and Matrix Metallopeptidase-13 (MMP13) was measured as markers of arthritis.
(§3) NO and PGE2 production was measured using Cayman Chemicals (Bertin Pharma, France) following the manufacturer's protocol. NO production was estimated spectrophotometrically by measuring the accumulation of nitrites in the culture supernatants by Griess reaction using a standard curve prepared with sodium nitrite. PGE2 was estimated using a highly sensitive and specific Enzyme Immunoassay Kit. RNA extraction was performed by extracting RNA using the NucleoSpin™ RNA II Kit (Macherey-Nagel, Hoerdt, France) as per manufacturer's instructions. RNA was reverse-transcribed with SupersScript III (Life Technologies) and real-time polymerase chain reaction (RT-PCR) was performed with SYBR Select mix (Life Technologies). Primer sequences COX-2, iNoS and MMP13 was used to quantify the relative RNA expression. Primer sequence for GAPDH was used as the reference gene.

cyclooxgenase-2 (COX-2) = experiment: RNA expression of COX-2 (RT-PCR) in IL-1β stimulated RAC; type: cell-based, Rabbit; details: for Effect on COX2 expression (in words): IL-1β stimulated RAC; for COX2 Expression: relative RNA expression (untreated = 1.0), GAPDH reference, 24 h pre-treatment, IL-1β 10 ng/ml 48 h, green tea extract 50 μM, collagen 0.5 mg/ml, chondroitin 200 μg/ml
Method: as §1, §2, §3

[2] = tested on: Matrix Metallopeptidase-13 (MMP13); experiment: RNA expression of MMP13 (RT-PCR) in IL-1β stimulated RAC; type: cell-based, Rabbit
Method: as §1, §2
NO and PGE2 production was measured using Cayman Chemicals (Bertin Pharma, France) following the manufacturer's protocol. NO production was estimated spectrophotometrically by measuring the accumulation of nitrites in the culture supernatants by Griess reaction using a standard curve prepared with sodium nitrite. PGE2 was estimated using a highly sensitive and specific Enzyme Immunoassay Kit. […] Primer sequences COX-2, iNoS and MMP13 was used to quantify the relative RNA expression. […]

[3] = tested on: Rabbit Articular Chondrocytes (RAC); experiment: Cellular viability of RAC (MTS assay and trypan blue exclusion); type: cell-based
Method: as §1
Cellular viability was measured using an MTS assay (Cell Titer 96™ MTS, Promega, France) as per manufacturer's instructions. Cells were also counted using a Malassez cell and cellular viability was assessed using trypan blue exclusion dye technique, which colours dead cells in blue.
Rabbit Articular Chondrocytes (RAC) were incubated with the different compounds separately or blended together to evaluate their cytotoxicity.

**Q.** For Chondroitin, which “Effect on iNos expression (in words)” value [1] is on record?
**A.** seems to have no effect

**Q.** What about the “iNoS Expression” value [1] of the same substance?
**A.** 5.3

**Q.** And the “Effect on COX2 expression (in words)” value (cyclooxgenase-2 (COX-2))?
**A.** seems to have no effect

**Q.** And the “COX2 Expression” value (cyclooxgenase-2 (COX-2))?
**A.** 10.7

**Q.** And the “Effect on MMP13 expression (in words)” value [2]?
**A.** seems to have no effect

**Q.** What about the “Cellular toxicity (MTS measurements and Trypan blue exclusion)” value ([3]; 24 and 48 hours of incubation, large range of concentration (data not shown)) of the same substance?
**A.** did not reveal any cellular toxicity

**Q.** Collagen was tested. Which “Effect on iNos expression (in words)” value [1] did it give?
**A.** decreases the expression

**Q.** What about the “iNoS Expression” value [1] of the same substance?
**A.** 3.9

**Q.** What about the “Effect on COX2 expression (in words)” value (cyclooxgenase-2 (COX-2)) of the same substance?
**A.** decreases the expression

**Q.** What about the “COX2 Expression” value (cyclooxgenase-2 (COX-2)) of the same substance?
**A.** 7.1

**Q.** And the “Effect on MMP13 expression (in words)” value [2]?
**A.** decreases the expression

**Q.** What about the “Cellular toxicity (MTS measurements and Trypan blue exclusion)” value [3] of the same substance?
**A.** did not reveal any cellular toxicity
